One test relates to Bax. Kind of test: Western blotting analysis of Bax. Particulars: CTX-TNA2 challenged with H2O2, 24 h; 1000 nM CBD, 1 nM CBG. It is filed as cell-based, rat. Here is the method: […] The stock solutions were diluted in cell medium to the point that the concentration of DMSO in the samples was less than 0.0003%. Therefore, the addition of DMSO to the control samples was not necessary.
The western blowing analysis of Bax and Cyt C was carried out as previously reported. Specifically, CTX-TNA2 lysates (20 µg) were boiled fof 5 min in sample buffer, made of tris-HCl pH 6.8, glycerol, 2-mercaptoethanol, SDS and bromophenol blue. They were then electrophoresed and transferred to nitrocellulose membranes. […] Immunoreactive bands were identified using the ECL detection system (Euroclone, Pero, Milano, Italy) and analyzed by densitometry. Densitometric values were quantified by the CHEMIDOC XRS system and expressed as Integrated Optical Intensity using the QuantiOne 1-D analysis software (Bio-rad Laboratories, Richmond, CA, USA). […] Results are expressed as the mean ± SD.
For orientation: In western blotting, separated proteins are transferred to a membrane and probed.

The test system of a further test is 5-HT receptor (5-HT1A). Particulars: cited from earlier work.
Test [1] relates to isolated rat prefrontal cortex, 5-HT. Kind of test: H2O2-induced reduction in 5-HT level in isolated cortexes. Particulars: hydrogen peroxide 300 µM; CBD 1000 nM, CBG 1 nM. As to the method:
Sprague–Dawley rats (200–250 g) were sacrificed by CO2 inhalation and isolated prefrontal cortex specimens were immediately explanted and exposed to 300 µM H2O2 and different concentrations of CBD (1–1000 nM) and CBG (1–1000 nM) for one hour, at 37 °C. The nitrite concentration in the resuspension buffer was determined by colorimetric Griess assay. Specifically, cortex specimens were homogenized for 2 min with Potter–Elvehjem homogenizer in 2 mL DMEM buffer. The homogenate was centrifuged at 4500 g for 10 min and nitrite production was determined in the supernatant fraction by mixing 50 µL of the assay buffer with 50 µL of Griess reagent (1.5% sulfanilamide in 1M HCl plus 0.15% N-(1-naphthyl) ethylenediamine dihydrochloride in distilled water, v/v). After 10 min incubation at room temperature, the absorbance at 540 nm was determined and nitrite concentrations were calculated from a sodium nitrite standard curve. […]
Tissue 3-HK, 5-HT and 5HIIA levels were analyzed through an HPLC apparatus consisting of a Jasco (Tokyo, Japan) PU-2080 chromatographic pump and an ESA (Chelmsford, MA, USA) Coulochem III coulometric detector, equipped with a microdialysis cell (ESA-5014b), a porous graphite working electrode and a solid state palladium reference electrode. The analytical conditions for identification and quantification were selected according to previous studies. […]

Test [2] can be described thus: ABTS scavenging ability test. The following applies: mean ± S.D., n = 3. Here is the method: For the 2,2′-azino-bis(3-ethylbenzothiazoline) 6-sulfonic acid (ABTS) radical scavenging assay, ABTS+ was produced directly by reacting 7 mM ABTS solution with 2.45 mM potassium persulfate and allowing the mixture to stand for […] in the dark at room temperature. Prior to beginning the assay, ABTS solution was diluted with methanol to an absorbance of 0.700 ± 0.02 at 734 nm. Sample solution was added to ABTS solution (2 mL) and mixed. The sample absorbance was read at 734 nm after a 30 min incubation at room temperature. The ABTS radical scavenging activity was expressed as IC50 values.

As to `CCCCCc1cc(O)c(C/C=C(\C)CCC=C(C)C)c(O)c1` [CBG, cannabigerol], the Bax expression entry in the test on Bax was “expression does not differ from the control sample”. For the same molecule, in the test on 5-HT receptor (5-HT1A), the “effect on 5-HT1A activity” value is listed as “moderately antagonized”. Also, the “effect on H2O2-induced 5-HT depletion” value in test [1] is given as “same effect at the concentration of 1 nM”. In test [2], this molecule gave an IC50 of 1030 ± 10 µM.
`C=C(C)[C@@H]1CCC(C)=C[C@H]1c1c(O)cc(CCCCC)cc1O` [CBD, Cannabidiol]: the Bax expression entry with Bax is reported as “keep Bax expression at values comparable to the control sample”. Besides, the “effect on 5-HT1A activity” value in the test on 5-HT receptor (5-HT1A) is recorded as “activated”. Besides, the “effect on H2O2-induced 5-HT depletion” value in test [1] was “blunting effect on 5-HT depletion”. Besides, the half-maximal inhibitory concentration (IC50) in test [2] came out at 1040 ± 10 µM.

By IC50 is commonly meant the concentration at which inhibition is half-maximal. A low value points to higher potency.
